From patent US20260091020A1, “TREATMENT OF ACUTE CANNABINOID OVERDOSE” (Anebulo Pharmaceuticals, Inc., priority 2022, published 2026)
Like-named read-outs stand apart in the source and are kept apart here.

Experiment: Plasma PK of ANEB-001 and THC, 50 and 100 mg oral Compound 1 with THC (Example 2)
Format: in vivo, human
Conditions: for concentration at 0 h / concentration at 0.33 h / concentration at 0.67 h / concentration at 1 h / concentration at 2 h / concentration at 3 h / concentration at 4 h / concentration at 5 h / concentration at 24 h / AUC(0-t) / Cmax / Tmax: human, in vivo; for Tmax: read-out: THC plasma tmax, Median
Procedure: A phase 2 clinical study was conducted using the design outlined in FIG. 1. Briefly, 60 adult healthy volunteers ages 18-45 (20 per arm) were selected for a randomized, double blind placebo-controlled study. Volunteers were divided into three groups: (1) THC (Δ9-Tetrahydrocannabinol, 10.5 mg)+placebo; (2) THC (10.5 mg)+Compound 1 (50 mg); and (3) THC (10.5 mg)+Compound 1 (100 mg). […] A followup evaluation was also performed after 14 days. Primary endpoints included inhibition of central nervous system effects of THC using (a) visual analog scale “feeling high”; (b) visual analog scale “alertness”; (c) body sway; (d) heart rate. Secondary endpoints included additional efficacy metrics, safety/tolerability, PK, and PK/PD correlations.
Following the general methods of Example 1, pharmacodynamic properties were measured for Compound 1 (FIGS. 13A-13F).

[1] = 10 mg THC + 50 mg ANEB-001, read-out: THC Concentration in Plasma, Mean
[2] = 10 mg THC + 50 mg ANEB-001, read-out: THC Concentration in Plasma, Median
[3] = 10 mg THC + 100 mg ANEB-001, read-out: THC Concentration in Plasma, Mean
[4] = 10 mg THC + 100 mg ANEB-001, read-out: THC Concentration in Plasma, Median
[5] = 10 mg THC + Placebo, read-out: THC Concentration in Plasma, Mean
[6] = 10 mg THC + Placebo, read-out: THC Concentration in Plasma, Median

## CCCCCc1cc(O)c2c(c1)OC(C)(C)[C@@H]1CCC(C)=C[C@@H]21 [THC, Δ9-tetrahydrocannabinol]
10 mg THC + 50 mg ANEB-001
  THC plasma tlag, Median: 0.00 h
  Tmax: 1 h
10 mg THC + 100 mg ANEB-001
  THC plasma AUClast, Mean: 6.128 ng·h/mL
  THC plasma tlag, Median: 0.00 h
  Tmax: 0.67 h
10 mg THC + Placebo
  THC plasma AUClast, Mean: 5.722 ng·h/mL
  THC plasma Cmax, Median: 2.81 ng/mL
  THC plasma tlag, Median: 0.00 h
  Tmax: 1 h
[1]
  concentration at 0 h: 0 ng/mL
  concentration at 0.33 h: 1.27 ng/mL
  concentration at 0.67 h: 2.9 ng/mL
  concentration at 1 h: 2.76 ng/mL
  concentration at 2 h: 1.4 ng/mL
  concentration at 3 h: 0.721 ng/mL
  concentration at 4 h: 0.432 ng/mL
  concentration at 5 h: 0.287 ng/mL
  concentration at 24 h: 0.00555 ng/mL
[2]
  concentration at 0 h: 0 ng/mL
  concentration at 0.33 h: 0.738 ng/mL
  concentration at 0.67 h: 2.41 ng/mL
  concentration at 1 h: 2.6 ng/mL
  concentration at 2 h: 1.18 ng/mL
  concentration at 3 h: 0.689 ng/mL
  concentration at 4 h: 0.379 ng/mL
  concentration at 5 h: 0.264 ng/mL
  concentration at 24 h: 0 ng/mL
10 mg THC + 50 mg ANEB-001, read-out: THC plasma AUClast, Geometric Mean
  AUC(0-t): 5.65 ng·h/mL
10 mg THC + 50 mg ANEB-001, read-out: THC plasma AUClast, Mean
  AUC(0-t): 5.98 ng·h/mL
10 mg THC + 50 mg ANEB-001, read-out: THC plasma AUClast, Median
  AUC(0-t): 5.51 ng·h/mL
10 mg THC + 50 mg ANEB-001, read-out: THC plasma Cmax, Geometric Mean
  Cmax: 3.14 ng/mL
10 mg THC + 50 mg ANEB-001, read-out: THC plasma Cmax, Mean
  Cmax: 3.4 ng/mL
10 mg THC + 50 mg ANEB-001, read-out: THC plasma Cmax, Median
  Cmax: 3.12 ng/mL
[3]
  concentration at 0 h: 0 ng/mL
  concentration at 0.33 h: 1.72 ng/mL
  concentration at 0.67 h: 3.54 ng/mL
  concentration at 1 h: 2.7 ng/mL
  concentration at 2 h: 1.28 ng/mL
  concentration at 3 h: 0.718 ng/mL
  concentration at 4 h: 0.446 ng/mL
  concentration at 5 h: 0.314 ng/mL
  concentration at 24 h: 0.006 ng/mL
[4]
  concentration at 0 h: 0 ng/mL
  concentration at 0.33 h: 0.986 ng/mL
  concentration at 0.67 h: 2.41 ng/mL
  concentration at 1 h: 1.88 ng/mL
  concentration at 2 h: 1.05 ng/mL
  concentration at 3 h: 0.639 ng/mL
  concentration at 4 h: 0.35 ng/mL
  concentration at 5 h: 0.228 ng/mL
  concentration at 24 h: 0 ng/mL
10 mg THC + 100 mg ANEB-001, read-out: THC plasma AUClast, Geometric Mean
  AUC(0-t): 5.3 ng·h/mL
10 mg THC + 100 mg ANEB-001, read-out: THC plasma AUClast, Median
  AUC(0-t): 4.94 ng·h/mL
10 mg THC + 100 mg ANEB-001, read-out: THC plasma Cmax, Geometric Mean
  Cmax: 3.08 ng/mL
10 mg THC + 100 mg ANEB-001, read-out: THC plasma Cmax, Mean
  Cmax: 3.77 ng/mL
10 mg THC + 100 mg ANEB-001, read-out: THC plasma Cmax, Median
  Cmax: 2.46 ng/mL
[5]
  concentration at 0 h: 0 ng/mL
  concentration at 0.33 h: 1.17 ng/mL
  concentration at 0.67 h: 2.29 ng/mL
  concentration at 1 h: 2.49 ng/mL
  concentration at 2 h: 1.44 ng/mL
  concentration at 3 h: 1.01 ng/mL
  concentration at 4 h: 0.455 ng/mL
  concentration at 5 h: 0.285 ng/mL
  concentration at 24 h: 0 ng/mL
[6]
  concentration at 0 h: 0 ng/mL
  concentration at 0.33 h: 0.776 ng/mL
  concentration at 0.67 h: 1.81 ng/mL
  concentration at 1 h: 2.27 ng/mL
  concentration at 2 h: 1.6 ng/mL
  concentration at 3 h: 0.838 ng/mL
  concentration at 4 h: 0.443 ng/mL
  concentration at 5 h: 0.248 ng/mL
  concentration at 24 h: 0 ng/mL
10 mg THC + Placebo, read-out: THC plasma AUClast, Geometric Mean
  AUC(0-t): 5.16 ng·h/mL
10 mg THC + Placebo, read-out: THC plasma AUClast, Median
  AUC(0-t): 4.96 ng·h/mL
10 mg THC + Placebo, read-out: THC plasma Cmax, Geometric Mean
  Cmax: 2.76 ng/mL
10 mg THC + Placebo, read-out: THC plasma Cmax, Mean
  Cmax: 3.15 ng/mL
